Where two headings read alike, the source gives them in different places.
Legend:
[1] = Plasma protein binding assay (ultrafiltration); assay type: in vitro ADME; settings: Wistar, rat; for fraction unbound at 4 h, 1 μg/mL / fraction unbound at 4 h, 5 μg/mL / fraction unbound at 4 h, 10 μg/mL / fraction unbound at 4 h, 20 μg/mL: ultrafiltration, 37°C
Procedure: The resulting samples were incubated for 4 h at 37°C. After incubation, a 100 μL aliquot was removed to analyze the total concentration, and the remaining 500 μL was transferred to a 10 kD cut-off ultrafiltration device (Millipore Corporation, USA), which was centrifuged at 2,000 g for 2 h at 37°C. A 100 μL aliquot of centrifuged plasma was analyzed for the free drug concentration using the RP-HPLC method. The amount of the test compound in the ultrafiltrate was determined by interpolating the main areas of the samples on standard curves containing known amounts of C2. The percentage of protein binding was calculated using the following formula: Protein binding ratio (%) = […].

[2] = Pharmacokinetic study of C2 in Wistar rats (plasma, HPLC, non-compartmental analysis); assay type: in vivo; settings: for k el: read-out: Ke (converted); for bioavailability: i.g. 100 mg/kg vs i.v. 50 mg/kg, read-out: F% orally (absolute oral bioavailability)
Description: Prior to the studies (on the day of C2 administration), the Wistar rats (n = 6) were cannulated. For intravenous (i.v.) treatment, a 24 G catheter was placed in the right lateral tail vein (for blood collection), and another catheter was placed in the left (for C2 administration) lateral tail vein of the rat as follows: the animal was placed inside a trap (special acrylic stocks for rats), the rat tail was exposed, and the distal region of the tail was disinfected with 70% ethanol; the tail veins were then dilated using a heating pad (approximately 45°C). An assistant held the tail of the rat while the left lateral vein was located, and a 24 G catheter was then firmly inserted into the posterior third of the caudal vein of the animal, where it was fixed with adhesive tape (for intragastric and intraperitoneal studies, only one catheter was placed on the right for blood collection).
For the intravenous study, a single dose of 50 mg/kg C2 was administered through the 24 G catheter when the rat was inside the trap. For the intragastric (i.g) pharmacokinetic study, a second group of rats (n = 6) received a single dose of 100 mg/kg using a 20 G gavage needle (animals were provided with a standard diet 4 h after dosing). For the intraperitoneal (i.p.) treatment, a third group of rats (n = 6) was injected with 75 mg/kg C2. In all pharmacokinetic studies, approximately 250 μL of blood was collected in heparinized tubes from each rat via the catheter in the right lateral tail vein prior to dosing and 5, 10, 20, 30, 45, 60, 90, 120, 180, 240, 300, 360, 540, 720 and 1440 min after dosing. These blood samples were supplemented with an equal volume of 0.9% sodium chloride solution. Plasma (100 μL) was harvested by centrifuging the blood samples at 8,000 rpm for 15 min, and the plasma was then immediately processed for analysis.
The samples were prepared as follows: briefly, 450 μL of acetonitrile was added to 100 μL of rat plasma, and the mixture was vortexed for 5 min. Subsequently, 450 μL of methanol was added to the sample, which was then vortexed again and centrifuged to precipitate proteins. Subsequently, 10 μL of the supernatant was introduced into the HPLC system. The plasma concentrations of C2 were determined using an RP-HPLC with UV detection method that had previously been validated for pharmacokinetic studies and the complementary assays performed in this work.
The plasma concentration–time data obtained after the i.v., i.g., and i.p. administration of C2 were subjected to a non-compartmental analysis using statistical moment theory. The pharmacokinetic parameters of C2 were calculated using the Kinetica 5.0 software (Adept Scientific Ltd), including the maximum plasma concentration (Cmax), time to reach Cmax (Tmax), elimination half-life (t1/2), area under the plasma concentration-time curve from time zero to the last measurable concentration (AUC0-t), area under the plasma concentration-time curve from time zero to infinity (AUCtot), mean residence time (MRT), clearance (CL), and apparent volume of distribution (Vd).

Wistar rats = test system: Wistar rats; parameters: method as in ref 37 = [37]; 37 OECD Guidelines for the Testing of Chemicals 425: Acute Oral Toxicity—Up-and-Down-Procedure (UDP). 2008.; settings: acute toxicity; cited from earlier work
CD1 mice = test system: CD1 mice; parameters: method as in ref 37 = [37]; 37 OECD Guidelines for the Testing of Chemicals 425: Acute Oral Toxicity—Up-and-Down-Procedure (UDP). 2008.; settings: acute toxicity; cited from earlier work
Log P = assay type: physicochemical; settings: method not given
[3] = read-out: % Bound fraction of C2 in rat plasma ± SD (converted)
[4] = read-out: % Unbound fraction of C2 in rat plasma ± SD
[5] = pharmacokinetic model (Kinetica 5.0), bi-exponential decline of plasma concentration
[6] = pharmacokinetic model (Kinetica 5.0), calculated
[7] = rat, plasma, ip, single dose (100 mg/kg in abstract, 75 mg/kg in methods), Wistar rats
[8] = rat, plasma, iv, single dose 50 mg/kg, Wistar rats
[9] = rat, plasma, i.g. (oral), single dose 100 mg/kg, Wistar rats

For `O=C(O)CCCC(=O)Nc1ccc(O)c(C(=O)O)c1` [C2, 5-[(4-carboxybutanoyl)amino]-2-hydroxybenzoic acid], the fraction unbound at 4 h, 1 μg/mL [1, 3] was 0.921, the fraction unbound at 4 h, 1 μg/mL [1, 4] was 0.921 ± 0.023 and the fraction unbound at 4 h, 5 μg/mL [1, 3] was 0.925. The fraction unbound at 4 h, 5 μg/mL [1, 4] was 0.925 ± 0.018, the fraction unbound at 4 h, 10 μg/mL [1, 3] was 0.919 and the fraction unbound at 4 h, 10 μg/mL [1, 4] was 0.919 ± 0.007. The fraction unbound at 4 h, 20 μg/mL [1, 3] was 0.898, the fraction unbound at 4 h, 20 μg/mL [1, 4] was 0.898 ± 0.008 and the fraction unbound at 4 h ([1]; concentrations of 1 to 20 μg/mL, read-out: unbound fraction) was 0.898 to 0.925. The fraction unbound at 4 h ([1]; summary in discussion, read-out: protein binding (converted)) was 0.9, the “detection in the plasma” value ([2]; 6 h after administration) was “no longer detected” and the half-life ([2]; Wistar, rat, plasma, ip, 75 mg/kg, i.p., single dose (100 mg/kg in abstract, 75 mg/kg in methods), Wistar rats, read-out: t1/2 e) was 38 ± 3 min. It also gave a half-life ([2]; Wistar, rat, plasma, iv, 50 mg/kg, i.v., single dose 50 mg/kg, Wistar rats, read-out: t1/2 e (elimination half-life)) of about 33 min, a Tmax ([2]; Wistar, rat, plasma, iv, 50 mg/kg, single dose 50 mg/kg, Wistar rats) of 5 min and a half-life ([2]; Wistar, rat, plasma, pharmacokinetic model (Kinetica 5.0), read-out: elimination half-life α (t1/2α)) of 18 min. The half-life ([2]; Wistar, rat, plasma, pharmacokinetic model (Kinetica 5.0), read-out: elimination half-life β (t1/2β)) was 62 min, the half-life ([2]; Wistar, rat, plasma, po, 100 mg/kg, i.g. (oral), single dose 100 mg/kg, Wistar rats, read-out: t1/2 e) was about 27 min and the Cmax ([2]; i.g. (oral), single dose 100 mg/kg, Wistar rats, plasma) was 2500 ± 300 ng/mL. The Ka ([2]; i.p., single dose (100 mg/kg in abstract, 75 mg/kg in methods), Wistar rats) was 1.2 ± 0.2 h⁻¹, the “Cp^0” value ([2]; i.v., single dose 50 mg/kg, Wistar rats) was 26900 ± 3700 ng/mL and the α [2, 5] was 0.037 min⁻¹. The β [2, 5] was 0.011 min⁻¹, the K12 [2, 6] was 0.008 min⁻¹ and the K21 [2, 6] was 0.022 min⁻¹. For the same compound, the AUC [2, 7] was 12500 ng·h/mL, the MRT [2, 7] was 69 min and the Cmax ([2]; rat, plasma, ip, single dose (100 mg/kg in abstract, 75 mg/kg in methods), Wistar rats, read-out: Cmax) was 8700 ± 400 ng/mL. It also gave a k el [2, 7] of 0.00025 s⁻¹, an AUC [2, 8] of 20800 ng·h/mL and an MRT [2, 8] of 57 min. It also gave a Vd [2, 8] of 2 ± 0.2 L/kg, a clearance [2, 8] of 13 ± 3 mL/min and a k el [2, 8] of 0.000361 s⁻¹. The bioavailability ([2]; rat, plasma, oral, Wistar rats) was about 13%, the bioavailability ([2]; rat, plasma, po, Wistar rats) was 13% and the Cmax ([2]; rat, plasma, po, intragastric administration, 100 mg/kg, Wistar rats (abstract), read-out: Cmax) was 2500 ng/mL. The AUC [2, 9] was 2620 ng·h/mL, the MRT [2, 9] was 49 min and the k el [2, 9] was 0.0005 s⁻¹. For the same compound, the LD50 (Wistar rats) was over 2000 mg/kg, the LD50 (CD1 mice) was over 2000 mg/kg and the logP (Log P) was 1.3.
